What was measured:
Type in all cases: cell-based
Details in all cases: 100 ng/me of peptide; EBV-infected B cells stimulated with anti-CD150; ELISA of culture supernatant
GM-CSF = test: Reduction of GM-CSF secretion in activated B cells (ELISA)
Method: (§1) In order to determine the activity of the novel peptides synthesized in Example 1 for reducing the secretion of inflammatory cytokines, the activated pathogenic B cells were treated with each of the 18 types of synthesized novel peptides and the reduction in secretion of inflammatory cytokines from the B cells was monitored.
(§2) Specifically, in order to determine whether the novel peptides could weaken the pathogenic B cells which are involved in the development of disease symptoms, the in vitro B cells model which is similar to the joint infiltrative B cells of rheumatoid arthritis was used. The activated pathogenic B cell was generated by stimulating Ebstein Barr virus (EBV)-infected B cells with anti-CD150 antibodies, and the cells were treated with […] of each of the 18 types of novel peptide.
(§3) In order to confirm the effect of 18 types of novel peptides in reducing inflammatory cytokines, the secretion amount of various cytokines (IL-1A, IL-1B, IL-2, IL-4, IL-5, IL-6, IL-8, IL-10, IL-12A, IL-13, IL-17A, GM-CSF, IL-34) secreted from the activated B cells was measured. The supernatants of B cell culture were analyzed enzyme-linked immunosorbent assay (ELISA), and the difference in absorbance (450 nm-570 nm) of the color developing reagent was measured as test results. Based on the measured difference in absorbance (450 nm-570 nm) of the color developing reagent, the absorbance of cytokines secreted when treated with the 18 types of novel […] was calculated in percentage, while setting the absorbance corresponding to the cytokines secreted from the activated B cells stimulated by anti-CD150 as 100%.

IL-8 = test: Reduction of IL-8 secretion in activated B cells (ELISA)
Method: as §1, §2, §3

IL-34 = test: Reduction of IL-34 secretion in activated B cells (ELISA)
Method: as §1, §2, §3

IL-6 = test: Reduction of IL-6 secretion in activated B cells (ELISA)
Method: as §1, §2, §3

IL-5 = test: Reduction of IL-5 secretion in activated B cells (ELISA)
Method: as §1, §2, §3

IL-1B = test: Reduction of IL-1B secretion in activated B cells (ELISA)
Method: as §1, §2, §3

IL-17A = test: Reduction of IL-17A secretion in activated B cells (ELISA)
Method: as §1, §2, §3

IL-2 = test: Reduction of IL-2 secretion in activated B cells (ELISA)
Method: as §1, §2, §3

IL-12A = test: Reduction of IL-12A secretion in activated B cells (ELISA)
Method: as §1, §2, §3

IL-13 = test: Reduction of IL-13 secretion in activated B cells (ELISA)
Method: as §1, §2, §3

IL-1A = test: Reduction of IL-1A secretion in activated B cells (ELISA)
Method: as §1, §2, §3

IL-4 = test: Reduction of IL-4 secretion in activated B cells (ELISA)
Method: as §1, §2, §3

IL-10 = test: Reduction of IL-10 secretion in activated B cells (ELISA)
Method: as §1, §2, §3

Substance	Inhibition rate of each cytokine compared to CD150-stimulated EBV-t B cells (%) GM-CSF (GM-CSF)	Inhibition rate of each cytokine compared to CD150-stimulated EBV-t B cells (%) IL-8 (IL-8)	Inhibition rate of each cytokine compared to CD150-stimulated EBV-t B cells (%) IL-34 (IL-34)	Inhibition rate of each cytokine compared to CD150-stimulated EBV-t B cells (%) IL-6 (IL-6)	Inhibition rate of each cytokine compared to CD150-stimulated EBV-t B cells (%) IL-5 (IL-5)	Inhibition rate of each cytokine compared to CD150-stimulated EBV-t B cells (%) IL-1B (IL-1B)	Inhibition rate of each cytokine compared to CD150-stimulated EBV-t B cells (%) IL-17A (IL-17A)	Inhibition rate of each cytokine compared to CD150-stimulated EBV-t B cells (%) IL-2 (IL-2)	Inhibition rate of each cytokine compared to CD150-stimulated EBV-t B cells (%) IL-12A (IL-12A)	Inhibition rate of each cytokine compared to CD150-stimulated EBV-t B cells (%) IL-13 (IL-13)	Inhibition rate of each cytokine compared to CD150-stimulated EBV-t B cells (%) IL-1A (IL-1A)	Inhibition rate of each cytokine compared to CD150-stimulated EBV-t B cells (%) IL-4 (IL-4)	Inhibition rate of each cytokine compared to CD150-stimulated EBV-t B cells (%) IL-10 (IL-10)
PSPRDG (SIS-1#5 peptide)	7.5%	10.5%	13.2%	18.7%	9.8%	14.2%	12.8%	6.8%	8.9%	15.2%	8.3%	13.2%	7.2%
RDGRT (SIS-1#16 peptide)	6.2%	33.0%	23.1%	22.8%	20.3%	17.0%	32.8%	15.4%	29.8%	24.5%	16.2%	23.9%	31.2%
RDG (SIS-1#14 peptide)	0.3%	5.7%	4.2%	1.5%	11.0%	5.3%	7.7%	10.2%	2.9%	4.4%	7.2%	3.0%	10.4%
TDG (SIS-1#11 peptide)	4.2%	4.2%	7.2%	8.1%	10.8%	2.7%	6.3%	3.2%	6.8%	5.9%	6.0%	19.5%	4.2%

Source: patent US9403874B2, “Peptides and use thereof” (IL YANG PHARM. CO.,LTD., priority 2012, dated 2016)
